Reference: patent US20130171073A1 (CEDARS-SINAI MEDICAL CENTER, priority 2010, published 2013)
Entries after “also recorded” stand apart in the source; their conditions may differ. One block for each compound: values may come before it.

Legend:
[1] = tested on: pituitary POMC cells overexpressing zPttg; assay: In vivo treatment of Tg:Pomc-Pttg; POMC-eGFP zebrafish embryos with CDK inhibitors, pituitary POMC-eGFP fluorescence; conditions: for reduction in pituitary POMC-eGFP expression compared with controls: 50 μM in embryo medium, control 0.2% DMSO
Protocol: (§1) Results represent one of three similar experiments.
(§2) WT and transgenic embryos were examined at various developmental stages under a fluorescein isothiocyanate filter on an Axioplan-2 microscope (Carl Zeiss). Live embryo images were generated with an Axiocam video system (Carl Zeiss). Fluorescence intensity of POMC-GFP-positive cells was measured by the area of interest function in Openlab software (Improvision). For confocal imaging, images were captured in a Z-series by using a TCS SP confocal microscope (Leica Microsystems). GFP was detected at a spectral range from 507 to 550 nm, RFP from 585 to 690 nm, and DAPI from 460 to 480 nm. Images were prepared using Leica LCS lite, Volocity 5.2 (Improvision), and Photoshop 7.0 (Adobe). Pituitary GFP and RFP intensity and area were measured using Volocity 5.2 (Improvision). Lipid Staining Liver cryosections were stained with oil redO (Sigma-Aldrich) per manufacturer's protocol. Lipid staining was scored based upon area distribution (>50% positive cells, 2 points; <50% but >10%, 1 point; <10%, 0 points) and intensity [strong, large (size of cell) lipid droplets, 2 points; weak, small (smaller than cell size) lipid droplets, 1 point; negative, 0 points].

[2] = tested on: pituitary lactotrophs (Prl-RFP); assay: In vivo treatment of Tg:Pomc-Pttg; Prl-RFP zebrafish embryos, pituitary Prl-RFP fluorescence; conditions: 50 μM, 18 to 48 hpf
Protocol: as §1, §2

[3] = tested on: AtT20 corticotroph tumor xenografts; assay: AtT20 corticotroph tumor xenograft in athymic nude mice, tumor growth and tumor protein expression; conditions: 150 mg/kg oral gavage twice daily
Protocol: (§3) Athymic nude mice were subcutaneously inoculated with corticotroph tumor AtT20 cells (1×10^5 cells). […] (D) Blood was collected from each animal for measurement of plasma ACTH and serum corticosterone levels.
Animal experiments were performed in accordance with Cedars-Sinai Institutional Animal Care and Use committee guidelines. Mouse corticotroph tumor AtT20 cells (−1×10^5) were inoculated s.c. into 6-wk-old female nu/nu mice. […] After 3 wk of treatment, mice were killed by CO2 inhalation, and tumors were dissected, weighted, and snapfrozen for further analysis.
Protein samples were prepared in RIPA buffer (Sigma), separated on NuPAGE Novex Bis-Tris Gels (Invitrogen), and transferred onto PVDF membrane (Millipore) before blotting with primary antibody [cyclin E, 1:500 (Abcam); PTTG, 1:1,000 (Abcam); β-actin, 1:5,000 (Sigma); and p21, 1:1,000, p27, 1:500, p57, 1:1,000, pRb821, 1:1,000 (Santa Cruz Biotechnology)] at 4° C. overnight. After washes with 0.5% Tween-20 in Tris-buffered saline solution, membranes were incubated with horseradish peroxidaselinked secondary antibody (GE Healthcare) and developed using ECL Western blotting detection reagents (GE Healthcare).

[4] = tested on: AtT20 cells; assay: Senescence (β-galactosidase expression) in AtT20 cells; conditions: 10 μM, 48 hours
[5] = tested on: AtT20 cells; assay: ACTH radioimmunoassay of AtT20 culture medium; conditions: AtT20 cells vs vehicle
[6] = tested on: zebrafish embryos; assay: Gross morphology / development of zebrafish embryos exposed to CDK inhibitors; conditions: 50 μM, starting at 18 hpf, observed by 40 hpf
Protocol: (C) In vivo treatment of Tg:Pomc-Pttg; Pomc-eGFP embryos with different small molecule CDK inhibitors (50 μM) or 0.2% DMSO as control from 18-40 hpf. 100-150 embryos were treated with each compound at a time. Representative images of live embryos are shown with gross morphology (right panels) and pituitary Pomc-GFP positive cells at higher magnification (left panels) at 40 hpf. […] (D) Relative expression of pituitary Pomc-eGFP fluorescence were analyzed using Velocity 5.2 (Improvision) (mean±SE of relative expression, n=7 randomly picked embryos from 100-150 embryos of each group). […] Results represent one of three similar experiments. Scale bar, 50 μm. *, p<0.02; **, p<0.000005.
Tg:Pomc-Pttg; POMC-eGFP double transgenic embryos were exposed to each compound added to the embryo culture medium.
Dexamethasone (Sigma) was dissolved in distilled water, R-roscovitin (Selleck Chemicals), flavopiridol (Selleck Chemicals), PD0332991 (Selleck Chemicals), olomoucine (Cayman Chemical Co.), and CAY10578 (Cayman Chemical Co.) were dissolved in 0.2% DMSO at a stock concentration of 1 mM, and diluted in fish medium immediately before adding to live embryos at the stages indicated.

[7] = tested on: AtT20 corticotroph tumor xenografts; assay: Plasma ACTH and serum corticosterone in AtT20 xenograft-bearing nude mice; conditions: 150 mg/kg oral gavage twice daily, three weeks
Excerpt: as §3
Mouse corticotroph tumor AtT20 cells (−1×10^5) were inoculated s.c. into 6-wk-old female nu/nu mice. […] After 3 wk of treatment, mice were killed by CO2 inhalation, and tumors were dissected, weighted, and snapfrozen for further analysis.

[8] = tested on: mouse pituitary ACTH-secreting tumor AtT20 cell line; assay: Wst-1 cell proliferation assay in AtT20 cells; conditions: 1−2×10^−5 M
[9] = Insulin tolerance test in adult zebrafish; assay type: in vivo; conditions: 0.1 unit/100 mg
Protocol: Zebrafish glucocorticoid steroidogenic cells are arranged as epithelial cell layers (arrowheads) in association with the renal head posterior cardinal vein (PCV) 28. […] Glucose tolerance tests were performed in 72 Tg:pomc-pttg and WT fish. Zebrafish was given ad lib feeding of regular diet for one hour (grey column) after 16 hours of fasting. Blood glucose was measured at different time points after re-feeding. Glucose levels are presented as mean±SE (AUC, p<0.0001). (C) Insulin tolerance tests in Tg:pomc-pttg and WT fish. […] (D) Oil red O(ORO) staining of liver sections reveal hepatic lipid accumulation in Tg:Pomc-pttg transgenics. (E) Area distribution and intensity of hepatic ORO staining were scored (mean±SE, *, p<0.01). […] Top, Tg:Pomc-pttg zebrafish (Tg) with gross pericardial fluid accumulation (arrow) compared with wildtype (WT) at 24 months. […]
To determine the metabolic impact of hypercortisolism in Tg:Pomc-Pttg zebrafish, adult Tg:Pomc-Pttg and WT fish were subjected to 16 hour fasting followed by ad libitum feeding of regular diet for one hour. […] Because teleost fish are glucose intolerant due to blunted peripheral responses to insulin^29, and glucocorticoids induce insulin resistance in mammals, insulin sensitivity was assessed by testing blood glucose responses to intraperitoneally administered insulin. […]

[10] = 18-40 hpf, Tg:Pomc-Pttg, POMC-eGFP embryos

Compound: O=C1NCCc2[nH]c(-c3ccncc3)cc21 [CAY10572]
change in pituitary POMC-eGFP expression compared with controls ([1]; 50 μM, 18-40 hpf, Tg:Pomc-Pttg, POMC-eGFP embryos): no significant change

Compound: CC[C@H](CO)Nc1nc(NCc2ccccc2)c2ncn(C(C)C)c2n1 [R-roscovitine]
effect on Prl-RFP expression [2]: no effect
numbers of PCNA and ACTH co-expressing cells in tumors ([3]; 3 weeks): decreased
tumor volumes ([3]; 5 days per week, 3 weeks): decreased
weight reduction of dissected tumor xenografts ([3]; 5 days per week, three weeks): ~50%
weight of dissected tumor xenografts (mean±S.E.) ([3]; 5 days per week, three weeks, vehicle 40.0±4.7 mg, n=13-14): 21.0 ± 2.6 mg
ACTH protein expression in tumor specimens (Western-blot and immunohistochemistry) ([3]; three weeks): suppressed
PCNA protein expression in tumor specimens (Western-blot and immunohistochemistry) ([3]; three weeks): suppressed
β-galactosidase expression (senescence) [4]: increased
ACTH concentration in culture medium (RIA) [5]: decreased
embryonic growth / development of treated embryos [6]: no apparent growth defect
reduction in plasma ACTH levels [7]: > 50%
reduction in serum corticosterone levels [7]: ~50%
number of viable cells (Wst-1) ([8]; at 24 and 48 hours): decreased number of viable cells
cell number ([8]; by 24 hours): decreased cell number
reduction in pituitary POMC-eGFP expression compared with controls [1, 10]: approximately 40%
reduction of POMC-eGFP expression compared with control ([1]; 50 μM, 18 to 48 hpf, Tg:Pomc-Pttg, POMC-eGFP embryos): greater than 50%

Compound: CN1CC[C@@H](c2c(O)cc(O)c3c(=O)cc(-c4ccccc4Cl)oc23)[C@H](O)C1 [flavopiridol, 2-(2-chlorophenyl)-5,7-dihydroxy-8-((3S,4S)-3-hydroxy-1-methylpiperidin-4-yl)-4H-chromen-4-one]
embryonic growth / development of treated embryos [6]: early developmental defect; also recorded: retarded early embryonic development

embryonic growth / development of treated embryos [6]: no apparent growth defect
Compound: Cn1cnc2c(NCc3ccccc3)nc(NCCO)nc21 [olomoucine]
reduction in pituitary POMC-eGFP expression compared with controls [1, 10]: approximately 20%
relative expression of pituitary POMC-eGFP fluorescence (mean±S.E.) ([1]; 50 μM, 18-40 hpf, n=7, control 1.0±0.08): 0.8±0.07

Compound: insulin: insulin injected intraperitoneally for insulin tolerance test
blood glucose response to intraperitoneal insulin ([9]; Tg:Pomc-Pttg fish, up to 90 minutes after injection): no significant change
blood glucose response to intraperitoneal insulin ([9]; WT fish, 30 minutes after injection): brisk hypoglycemic response
